Reference: the NIST ThermoML archive (doi:10.1016/j.jct.2004.09.021)
± gives the expanded uncertainty stated by the source.

Assays:
[1] = xn = mol fraction of the nth substance listed; settings: 101 kPa, Liquid
[2] = refractive index (Na D-line) (dimensionless); xn = mol fraction of the nth substance listed; settings: 101 kPa, Liquid

COc1ccccc1 [anisole] + CCCCCCCCCCCC
Settings	mass density, 293.15 K [kg/m3]	mass density, 298.15 K [kg/m3]	mass density, 303.15 K [kg/m3]	refractive index, 293.15 K	refractive index, 298.15 K	refractive index, 303.15 K	viscosity, 293.15 K [mPa·s]	viscosity, 298.15 K [mPa·s]	viscosity, 303.15 K [mPa·s]
[1], x1 = 0.0992	760.26 ± 0.75	756.57 ± 0.76	752.87 ± 0.76	–	–	–	1.413 ± 0.023	1.312 ± 0.022	1.197 ± 0.02
[1], x1 = 0.2015	773.6 ± 0.73	769.83 ± 0.74	766.07 ± 0.74	–	–	–	1.341 ± 0.022	1.248 ± 0.021	1.138 ± 0.019
[1], x1 = 0.2969	787.75 ± 0.71	783.97 ± 0.72	780.1 ± 0.72	–	–	–	1.272 ± 0.021	1.181 ± 0.02	1.081 ± 0.018
[1], x1 = 0.4102	807.23 ± 0.69	803.3 ± 0.69	799.35 ± 0.7	–	–	–	1.19 ± 0.02	1.104 ± 0.019	1.003 ± 0.017
[1], x1 = 0.4898	822.92 ± 0.67	818.98 ± 0.67	814.93 ± 0.68	–	–	–	1.138 ± 0.019	1.052 ± 0.018	0.9616 ± 0.017
[1], x1 = 0.6099	850.24 ± 0.64	846.1 ± 0.64	841.96 ± 0.64	–	–	–	1.074 ± 0.018	0.9944 ± 0.017	0.9147 ± 0.016
[1], x1 = 0.702	875.28 ± 0.61	871.03 ± 0.61	866.78 ± 0.62	–	–	–	1.039 ± 0.018	0.9639 ± 0.016	0.8922 ± 0.015
[1], x1 = 0.8023	907.62 ± 0.58	903.24 ± 0.58	898.86 ± 0.59	–	–	–	1.032 ± 0.017	0.9569 ± 0.016	0.8858 ± 0.015
[1], x1 = 0.8976	944.56 ± 0.56	940.04 ± 0.56	935.51 ± 0.56	–	–	–	1.046 ± 0.018	0.9718 ± 0.017	0.9132 ± 0.016
[1], x1 = 1	993.81 ± 0.53	989.15 ± 0.53	984.42 ± 0.53	–	–	–	1.085 ± 0.018	1.017 ± 0.017	0.9285 ± 0.016
[2], x1 = 0.106	–	–	–	1.4239 ± 0.0013	1.4199 ± 0.0011	1.4163 ± 0.001	–	–	–
[2], x1 = 0.208	–	–	–	1.4289 ± 0.0012	1.4251 ± 0.0011	1.4213 ± 0.0011	–	–	–
[2], x1 = 0.29	–	–	–	1.4335 ± 0.0012	1.4298 ± 0.0011	1.4263 ± 0.001	–	–	–
[2], x1 = 0.391	–	–	–	1.4406 ± 0.0011	1.4371 ± 0.0011	1.4339 ± 0.001	–	–	–
[2], x1 = 0.4886	–	–	–	1.4488 ± 0.0011	1.4455 ± 0.001	1.4426 ± 0.001	–	–	–
[2], x1 = 0.607	–	–	–	1.4601 ± 0.0011	1.457 ± 0.001	1.4545 ± 0.0009	–	–	–
[2], x1 = 0.7055	–	–	–	1.4707 ± 0.0011	1.4677 ± 0.001	1.4654 ± 0.0009	–	–	–
[2], x1 = 0.7845	–	–	–	1.4809 ± 0.0011	1.4779 ± 0.001	1.4756 ± 0.0009	–	–	–
[2], x1 = 0.88	–	–	–	1.4959 ± 0.0011	1.493 ± 0.001	1.4908 ± 0.0009	–	–	–
[2], x1 = 1	–	–	–	1.5161 ± 0.0009	1.5141 ± 0.0009	1.5129 ± 0.0009	–	–	–

CCCCCCCC [octane] + COc1ccccc1
x2 = 0
Settings	mass density, 293.15 K [kg/m3]	mass density, 298.15 K [kg/m3]	mass density, 303.15 K [kg/m3]	refractive index, 293.15 K	refractive index, 298.15 K	refractive index, 303.15 K	viscosity, 293.15 K [mPa·s]	viscosity, 298.15 K [mPa·s]	viscosity, 303.15 K [mPa·s]
[1]	702.61 ± 0.84	698.57 ± 0.85	694.56 ± 0.85	–	–	–	0.5464 ± 0.01	0.5123 ± 0.0096	0.483 ± 0.0091
[2]	–	–	–	1.3965 ± 0.0009	1.3947 ± 0.0009	1.3926 ± 0.0009	–	–	–

CCCCCCCCCC [decane] + COc1ccccc1
x2 = 0
Settings	mass density, 293.15 K [kg/m3]	mass density, 298.15 K [kg/m3]	mass density, 303.15 K [kg/m3]	refractive index, 293.15 K	refractive index, 298.15 K	refractive index, 303.15 K	viscosity, 293.15 K [mPa·s]	viscosity, 298.15 K [mPa·s]	viscosity, 303.15 K [mPa·s]
[1]	729.91 ± 0.8	726.16 ± 0.8	722.36 ± 0.81	–	–	–	0.9169 ± 0.016	0.8512 ± 0.015	0.7898 ± 0.014
[2]	–	–	–	1.4148 ± 0.001	1.4118 ± 0.001	1.4089 ± 0.001	–	–	–
